Earlier results as cited in US20050192272A1, “Substituted benzodiazepines as inhibitors of the chemokine receptor CXCR4” (priority 2003, published 2005).

Columns and labels:
[1] = Phase I/II clinical trials
[2] = rats
[3] = system: X4-strains of HIV
[4] = molecular target: CXCR4 (Homo sapiens, UniProt P61073); conditions: read-out: IC50 in inhibiting the binding of CXCL12 to CXCR4
Sequence of CXCR4 (P61073 whole entry): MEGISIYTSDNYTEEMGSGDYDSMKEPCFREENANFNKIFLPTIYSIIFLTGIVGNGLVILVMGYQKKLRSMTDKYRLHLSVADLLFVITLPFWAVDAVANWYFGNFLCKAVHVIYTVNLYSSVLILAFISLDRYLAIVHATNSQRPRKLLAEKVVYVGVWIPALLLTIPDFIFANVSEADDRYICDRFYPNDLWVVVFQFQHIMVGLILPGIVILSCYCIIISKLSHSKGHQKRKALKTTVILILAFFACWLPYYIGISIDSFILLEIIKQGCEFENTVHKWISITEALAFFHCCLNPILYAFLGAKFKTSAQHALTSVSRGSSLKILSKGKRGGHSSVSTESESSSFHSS

c1cc(CN2CCCNCCNCCCNCC2)ccc1CN1CCCNCCNCCCNCC1 [ALX40-4C]
acute cardiac toxicity (month-long clinical study, 1995): did not exhibit any acute cardiac toxicity
adverse side effects (one-month Phase I/II clinical study): no adverse side effects

c1cc(CN2CCCNCCNCCCNCC2)ccc1CN1CCCNCCNCCCNCC1 [AMD3100]
cardiac toxicity [1]: exhibited certain cardiac toxicity properties
effectiveness [1]: limited effectiveness

C[C@H](NC(=O)[C@H](CCCNC(=N)N)NC(=O)c1ccc(CNCc2ccccn2)cc1)c1cccc2ccccc12 [KRH-1636]
absorption from the duodenum [2]: absorbed from the duodenum in rats

[Tyr^5,12, Lys^7]-polyphemusin II [T-22]
inhibition of multiplication of X4-strains of HIV ([3]; through specific binding to the CXCR4 receptor): strongly inhibit

c(Nal-Gly-tyr-Arg-Arg) [FC131]
IC50 [4]: 4 nM
level of anti-HIV activity and antagonism among CXCR4 antagonists reported to date [3]: matched
